System: CYP3A4
Experiment: Midazolam drug-drug interaction assessment
Conditions: 2 mg midazolam with third once-weekly 400-mg dose of MK-8507 vs midazolam alone
Experimental: Study 2 (protocol MK-8507-002) was a randomized, serial, 3-panel (A to C), single- and multiple-QW rising-dose trial. Single doses of 400, 800, and 1,200 mg MK-8507 or placebo tablet formulation were administered on day 1 to panels A, B, and C, respectively, to continue dose escalation beyond the dose range in study 1. Following a washout period of 3 weeks, the multiple-dose portion of the trial began. Participants in panels A, B, and C received QW doses of 100, 200, or 400 mg MK-8507 or placebo for 3 weeks (i.e., on days 22, 29, and 36), respectively. […] The PK profile of midazolam following a single oral dose alone or after multiple oral dose administration of MK-8507 was also evaluated. […]
Plasma samples collected for midazolam assay were analyzed by Syneos Health (Québec, Canada). […] The lower limit of quantitation was 20.00 pg/mL, and the analytical range was 20.00 to 20,000.00 pg/mL.
PK parameter values were calculated by noncompartmental analyses using the software Phoenix WinNonlin Professional (version 6.3) (Certara, Princeton, NJ, USA). […] AUC0–∞ and AUC0–168hr were calculated using the linear-trapezoidal method for ascending concentrations and the log-trapezoidal method for descending concentrations (linear up/log down). […]

## Cc1ncc2n1-c1ccc(Cl)cc1C(c1ccccc1F)=NC2 [Midazolam, midazolam]
  decrease in midazolam AUC when coadministered with MK-8507: 12%
  decrease in midazolam Cmax when coadministered with MK-8507: 19%

Reference: paper PMC8597757, “Pharmacokinetic and Safety Profile of the Novel HIV Nonnucleoside Reverse Transcriptase Inhibitor MK-8507 in Adults without HIV” (Antimicrobial Agents and Chemotherapy, 2021)
